ChEMBL document CHEMBL1201862, “PubChem BioAssay data set” (2004)
One block for each compound: values may come before it. Active and inactive are the calls of the source.

Experiments:
[1] = target: T1, Aminopeptidase N (Plasmodium falciparum FcB1/Columbia, UniProt O96935); assay: malaria alanyl aminopeptidase activity blockers – biochemical, fluorogenic H-Leu-NHMec substrate, 1536-well (AID 1445); parameters: species or system Plasmodium falciparum 3D7, 3D7
T1 sequence (O96935 whole entry): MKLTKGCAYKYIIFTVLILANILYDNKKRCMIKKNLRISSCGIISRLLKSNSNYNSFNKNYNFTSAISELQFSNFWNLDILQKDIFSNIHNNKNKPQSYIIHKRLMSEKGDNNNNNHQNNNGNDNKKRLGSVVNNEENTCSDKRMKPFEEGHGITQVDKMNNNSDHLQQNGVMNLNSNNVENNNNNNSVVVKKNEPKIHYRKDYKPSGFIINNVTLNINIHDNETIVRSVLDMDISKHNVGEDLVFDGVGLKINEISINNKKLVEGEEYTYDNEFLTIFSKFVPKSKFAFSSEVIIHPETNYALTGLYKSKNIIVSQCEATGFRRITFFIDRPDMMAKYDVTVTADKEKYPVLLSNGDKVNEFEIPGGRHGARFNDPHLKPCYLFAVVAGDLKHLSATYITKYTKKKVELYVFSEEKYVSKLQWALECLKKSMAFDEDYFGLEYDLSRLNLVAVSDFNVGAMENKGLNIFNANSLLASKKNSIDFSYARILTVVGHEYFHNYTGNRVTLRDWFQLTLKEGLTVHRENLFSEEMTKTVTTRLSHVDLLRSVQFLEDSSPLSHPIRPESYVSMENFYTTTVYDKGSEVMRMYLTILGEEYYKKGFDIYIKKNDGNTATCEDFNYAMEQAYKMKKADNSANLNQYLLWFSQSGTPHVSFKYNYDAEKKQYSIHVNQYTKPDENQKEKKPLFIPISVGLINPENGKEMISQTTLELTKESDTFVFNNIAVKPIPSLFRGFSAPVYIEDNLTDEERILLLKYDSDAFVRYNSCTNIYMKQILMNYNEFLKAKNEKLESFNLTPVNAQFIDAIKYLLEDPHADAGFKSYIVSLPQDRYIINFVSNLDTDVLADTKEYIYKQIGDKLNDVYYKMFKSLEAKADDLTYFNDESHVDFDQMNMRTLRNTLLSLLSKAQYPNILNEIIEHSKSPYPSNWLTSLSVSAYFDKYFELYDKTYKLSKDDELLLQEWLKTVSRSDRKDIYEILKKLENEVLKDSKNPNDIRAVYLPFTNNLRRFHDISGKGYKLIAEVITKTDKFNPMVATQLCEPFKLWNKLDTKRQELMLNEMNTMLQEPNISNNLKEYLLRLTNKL

[2] = target: T2, Leucine aminopeptidase (Plasmodium falciparum 3D7, UniProt Q8IL11); assay: P. falciparum M17LAP inhibitors, primary screen, biochemical, fluorogenic H-Leu-NHMec substrate, 1536-well (AID 1619); format: functional
T2 sequence (Q8IL11 whole entry): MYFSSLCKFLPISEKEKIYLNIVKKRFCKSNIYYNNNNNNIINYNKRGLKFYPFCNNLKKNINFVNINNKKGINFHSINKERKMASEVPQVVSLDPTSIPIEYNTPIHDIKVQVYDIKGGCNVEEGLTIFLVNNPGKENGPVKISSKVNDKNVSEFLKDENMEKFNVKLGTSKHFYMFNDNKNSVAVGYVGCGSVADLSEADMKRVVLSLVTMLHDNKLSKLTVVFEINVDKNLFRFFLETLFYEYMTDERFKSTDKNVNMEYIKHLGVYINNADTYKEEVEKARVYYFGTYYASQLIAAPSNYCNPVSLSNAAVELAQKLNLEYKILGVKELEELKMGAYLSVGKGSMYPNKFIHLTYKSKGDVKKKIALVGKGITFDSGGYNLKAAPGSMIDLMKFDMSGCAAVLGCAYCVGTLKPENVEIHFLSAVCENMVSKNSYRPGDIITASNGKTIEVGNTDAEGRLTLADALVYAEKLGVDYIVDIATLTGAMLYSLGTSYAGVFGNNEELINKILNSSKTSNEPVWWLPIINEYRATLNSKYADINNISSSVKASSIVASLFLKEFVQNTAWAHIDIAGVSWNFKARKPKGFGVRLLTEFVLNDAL

[3] = target: T3, Histone-lysine N-methyltransferase NSD2 (Homo sapiens, UniProt O96028); format: biochemical
T3 sequence (O96028 whole entry): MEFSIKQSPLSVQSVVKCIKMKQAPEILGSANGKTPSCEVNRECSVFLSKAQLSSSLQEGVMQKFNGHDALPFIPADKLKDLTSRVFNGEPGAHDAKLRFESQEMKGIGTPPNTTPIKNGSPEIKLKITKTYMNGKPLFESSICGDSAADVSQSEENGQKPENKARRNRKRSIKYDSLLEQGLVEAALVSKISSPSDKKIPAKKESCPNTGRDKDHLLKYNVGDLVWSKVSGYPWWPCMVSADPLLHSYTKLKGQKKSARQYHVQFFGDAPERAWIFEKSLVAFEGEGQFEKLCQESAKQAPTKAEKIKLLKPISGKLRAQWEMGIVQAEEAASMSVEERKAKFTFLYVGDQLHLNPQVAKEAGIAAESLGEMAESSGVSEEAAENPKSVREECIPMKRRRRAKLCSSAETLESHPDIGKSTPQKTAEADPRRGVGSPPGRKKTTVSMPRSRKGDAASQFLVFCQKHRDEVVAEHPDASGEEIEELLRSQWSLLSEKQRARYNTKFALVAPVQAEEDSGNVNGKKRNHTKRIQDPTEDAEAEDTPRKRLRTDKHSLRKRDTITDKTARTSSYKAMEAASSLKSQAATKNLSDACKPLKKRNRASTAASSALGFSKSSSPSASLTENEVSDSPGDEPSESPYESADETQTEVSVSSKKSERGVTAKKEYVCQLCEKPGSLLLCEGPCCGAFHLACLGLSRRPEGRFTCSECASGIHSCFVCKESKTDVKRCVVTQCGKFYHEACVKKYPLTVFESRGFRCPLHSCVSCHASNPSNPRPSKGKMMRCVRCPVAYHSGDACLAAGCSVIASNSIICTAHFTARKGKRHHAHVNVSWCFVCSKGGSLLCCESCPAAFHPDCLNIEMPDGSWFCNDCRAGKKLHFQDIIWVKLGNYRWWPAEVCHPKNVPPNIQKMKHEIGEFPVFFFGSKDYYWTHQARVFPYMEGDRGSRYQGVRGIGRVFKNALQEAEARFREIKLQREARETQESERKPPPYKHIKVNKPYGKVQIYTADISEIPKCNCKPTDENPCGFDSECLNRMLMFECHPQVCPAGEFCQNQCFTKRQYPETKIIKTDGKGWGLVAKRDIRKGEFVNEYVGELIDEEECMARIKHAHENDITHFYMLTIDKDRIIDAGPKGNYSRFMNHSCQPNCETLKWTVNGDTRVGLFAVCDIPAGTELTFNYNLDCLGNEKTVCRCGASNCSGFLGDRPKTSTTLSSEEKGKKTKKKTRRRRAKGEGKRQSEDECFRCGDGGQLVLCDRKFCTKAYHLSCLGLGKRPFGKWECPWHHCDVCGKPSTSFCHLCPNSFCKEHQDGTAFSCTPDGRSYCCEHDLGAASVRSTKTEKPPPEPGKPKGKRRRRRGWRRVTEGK

[4] = target: T4, Dual specificity protein phosphatase 6 (Rattus norvegicus, UniProt Q64346); assay: inhibition of rat DUSP6 enzyme activity – biochemical, in vitro, primary screen (AID 425)
T4 sequence (Q64346 whole entry): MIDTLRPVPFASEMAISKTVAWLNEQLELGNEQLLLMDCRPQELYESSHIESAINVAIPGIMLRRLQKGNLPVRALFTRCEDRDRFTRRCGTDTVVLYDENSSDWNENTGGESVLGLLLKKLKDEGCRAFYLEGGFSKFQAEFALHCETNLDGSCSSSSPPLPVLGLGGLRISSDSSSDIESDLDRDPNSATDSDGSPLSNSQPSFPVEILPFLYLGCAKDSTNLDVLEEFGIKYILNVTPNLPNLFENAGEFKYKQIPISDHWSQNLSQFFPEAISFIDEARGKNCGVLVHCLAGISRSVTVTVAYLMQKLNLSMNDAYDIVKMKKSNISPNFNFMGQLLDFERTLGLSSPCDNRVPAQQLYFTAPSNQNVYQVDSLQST

[5] = target: Prothrombin (Homo sapiens, UniProt P00734); assay: Thrombin 1536 HTS Dose Response Confirmation. [Related pubchem assays: 1046 (Thrombin 1536 HTS; hits were confirmed in this assay)]; format: functional
[6] = growth inhibition of yeast DHODH-expressing 3D7 parasites – SYBR Green, dry powder samples, dose response (AID 1159570); format: functional, cell-based;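 note: parasite growth measured after 72 hours of compound exposure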
[7] = growth inhibition of PfATP4-mutant resistant parasites – NITD609-resistant line, SYBR Green, dry powder, dose response (AID 1159571); format: functional, cell-based;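 note: parasites synchronized at ring stage by sorbitol before testing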
[8] = target: Paired box protein Pax-8 (Homo sapiens, UniProt Q06710); assay: PAX8 transcriptional activity inhibition in RMG-I – RMG-I cells, luciferase, cherry-pick, dose response (AID 687027); format: functional, cell-based;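 note: luciferase reporter driven by Pax8 target thyroperoxidase promoter measured by SteadyGlo luminescence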
[9] = P. falciparum Dd2 growth inhibitors, dose response, SYBR Green, cherry-picked samples (AID 1159567); format: functional, cell-based
[10] = Dd2 malaria parasite growth inhibition potency – SYBR Green, dry powder samples, dose response (AID 1159566); format: functional, cell-based;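 note: potency for growth inhibition with lower SYBR green DNA signal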
[11] = OVCAR-3 cell viability loss – plate reader, dry powder samples, PAX8 inhibitor project, dose response (AID 743044); format: functional, cell-based
[12] = OVCAR8 cell viability loss – plate reader, dry powder samples, PAX8 project, dose response (AID 743197); format: functional, cell-based; settings: OVCAR-8
[13] = target: T5, Coagulation factor XII (Homo sapiens, UniProt P00748); format: functional;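 note: activated factor XIIa alpha cleaving a fluorogenic AMC peptide substrate; inhibitor potency from loss of enzyme activity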
T5 sequence (P00748 whole entry): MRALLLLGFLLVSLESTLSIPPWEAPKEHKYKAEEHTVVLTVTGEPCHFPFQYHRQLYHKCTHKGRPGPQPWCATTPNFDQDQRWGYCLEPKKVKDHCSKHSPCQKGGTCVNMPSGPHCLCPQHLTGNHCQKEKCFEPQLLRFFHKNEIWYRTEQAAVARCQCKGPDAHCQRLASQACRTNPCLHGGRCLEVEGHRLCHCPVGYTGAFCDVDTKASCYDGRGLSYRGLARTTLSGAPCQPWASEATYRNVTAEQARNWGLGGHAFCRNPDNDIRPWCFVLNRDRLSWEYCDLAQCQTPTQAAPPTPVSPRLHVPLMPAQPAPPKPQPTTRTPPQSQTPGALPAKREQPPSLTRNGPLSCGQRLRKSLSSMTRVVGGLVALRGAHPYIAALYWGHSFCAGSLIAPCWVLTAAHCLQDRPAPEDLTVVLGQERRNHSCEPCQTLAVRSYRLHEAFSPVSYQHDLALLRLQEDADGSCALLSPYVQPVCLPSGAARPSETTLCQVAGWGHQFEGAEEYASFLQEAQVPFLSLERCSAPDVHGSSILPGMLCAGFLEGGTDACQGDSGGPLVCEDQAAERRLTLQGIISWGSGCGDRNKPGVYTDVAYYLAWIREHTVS

[14] = test system: Streptococcus sp. 'group A'; assay: Streptococcus pyogenes SK(-)GAS viability under kanamycin – luminescence, BacTiterGlo, confirmation, counter-screen for streptokinase expression inhibitor project, dose response (AID 1900); format: functional, organism-based
[15] = test system: Streptococcus; assay: GAS UMAA2166 growth inhibition – luminescence, BacTiterGlo, counter-screen for streptokinase expression inhibitor project, dose response (AID 1915); format: functional, organism-based;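 note: potency for reduction of bacterial viability or growth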
[16] = test system: INS1; assay: INS-1E survival protection against cytokine death – cell-based, luminescence, retest, dose response (AID 449756); format: functional; settings: Rattus norvegicus;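 note: cell death triggered by IL-1 beta plus TNF-alpha plus IFN-gamma mixture; protective hits raise ATP signal compared with cytokine alone wells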

Sequence of Paired box protein Pax-8 (Q06710 whole entry): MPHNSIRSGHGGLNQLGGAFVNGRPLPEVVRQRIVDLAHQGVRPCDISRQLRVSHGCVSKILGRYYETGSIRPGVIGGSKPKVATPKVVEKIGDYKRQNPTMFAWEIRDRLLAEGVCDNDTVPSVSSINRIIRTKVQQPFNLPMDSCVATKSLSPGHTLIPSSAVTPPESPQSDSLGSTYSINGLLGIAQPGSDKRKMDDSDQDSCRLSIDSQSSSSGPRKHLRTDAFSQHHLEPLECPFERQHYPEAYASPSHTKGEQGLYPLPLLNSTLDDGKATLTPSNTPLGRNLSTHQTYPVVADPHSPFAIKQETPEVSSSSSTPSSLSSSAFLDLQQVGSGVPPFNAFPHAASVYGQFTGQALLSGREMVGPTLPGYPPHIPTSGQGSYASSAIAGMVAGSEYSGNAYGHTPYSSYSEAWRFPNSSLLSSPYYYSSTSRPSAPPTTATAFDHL

IC50 [1]: 10.4 µM (active) | IC50 [2]: 32.6 µM (active) | AC50 [3]: 10.4 µM (active)
Compound: Cc1ccc(C)c(N2C(=N)S/C(=C\c3ccc(-c4ccccc4C(=O)O)o3)C2=O)c1

IC50 [4]: > 100 µM (not active)
Compound: COC(=O)c1ccccc1NC(=O)Nc1cc(C)cc(C)n1

IC50 [4]: > 100 µM (not active)
Compound: O=C(c1ccc(-c2ccccc2)cc1)N1CCN(Cc2ccccn2)CC1

Continued, compound first:

Compound: Cn1c(SCC(=O)NC2CCCC2)nnc1-c1ccc(S(=O)(=O)N2CCOCC2)cc1
IC50 [5]: > 50 µM (not active)

Compound: N#Cc1sc2nc(-c3ccccc3)cc(C(F)(F)F)c2c1N
IC50 [5]: > 50 µM (not active)

Compound: Cc1ccc(S(=O)(=O)N(C)C[C@H]2Oc3cc(C#Cc4ccncc4)ccc3S(=O)(=O)N([C@@H](C)CO)C[C@@H]2C)cc1
AC50 [6]: 1.37 µM (active) | AC50 [7]: 1.64 µM (active) | AC50 [8]: 2.52 µM (active) | AC50 [9]: 1.68 µM (active) | AC50 [10]: 1.41 µM (active) | AC50 [11]: 49.1 µM (active) | AC50 [12]: > 70 µM (inactive)

Compound: Cc1noc(C)c1S(=O)(=O)Nc1ccc2c(c1)C(=O)N([C@@H](C)CO)C[C@H](C)[C@@H](CN(C)C(=O)Nc1ccc(C(F)(F)F)cc1)OCCCC[C@H](C)O2
AC50 [8]: 4.92 µM (active) | AC50 [11]: 30.9 µM (active) | AC50 [12]: > 70 µM (inactive)

Compound: O=C(N/N=C/c1ccc(OCc2cnc(Cl)s2)cc1)c1ccncc1
IC50 [13]: > 50 µM (inactive) | IC50 [5]: > 50 µM (not active)

Compound: O=C(N/N=C/c1cccc(F)c1)c1c(O)nc2ccccc2c1O
EC50 [14]: 2.87 µM (active) | EC50 [15]: 3.03 µM (active) | AC50 [16]: 3.63 µM (active) | IC50 [5]: > 50 µM (not active)

Compound: COc1ccc(NC(=O)N2CCCCN3[C@@H](CO)[C@H](c4ccc(C#Cc5ccccn5)cc4)[C@@H]3C2)cc1
AC50 [6]: 0.116 µM (active) | AC50 [7]: 0.132 µM (active) | AC50 [9]: < 0.3 µM (active) | AC50 [10]: 0.155 µM (active)
